Results on three substances are retold here after patent US7381707B2, “Treatment of dry eye” (Johnson & Johnson Consumer Companies, Inc., priority 2005, dated 2008).

“Also recorded” adds a separate entry of the source. No end group written: not given here.

The subject of experiment [1] is HaCaT cells. Description: Intracellular Ca2+ mobilization (FLIPR) in HaCaT cells. The note with it: for Intracellular calcium mobilization (in words): SLIGRL 4-40 μM, LIGR and scrambled peptide at concentrations as high as 800 μM. The experiment is classed as cell-based. The procedure:
HaCaT cells were seeded in a black-wall 96-well plate at about 20,000 cells/100 μl/well and grown overnight in culture medium prior to the experiment. On the day of the experiment, cells were loaded with 100 μl of Calcium Plus assay reagent component A (FLEXstation calcium Plus Assay Kit, Molecular Devices, Sunnyvale, Calif.) prepared in Hanks' Balanced Salt Solution (HBSS, Mediatech, Inc., Herndon, Va.) for 30 minutes according to the manufacturer's protocol. After loading the cells, SLIGRL, LIGR and ISSLRG (at 5× concentration in 50 μl) were added to all wells (final volume 250 μl/well), and intracellular Ca^2+ levels were subsequently assayed using the FLIPR system (Molecular Devices, Sunnyvale, Calif.) to simultaneously monitor fluorescence in all wells (Wavelength−excitation=488 nm, Wavelength−emission=510 nm) according to the manufacture's protocol. The fluorescence intensity was captured every 3 seconds for the first 3 minutes after the addition of the peptides. The results of this study are shown in Table 6, in fluorescence units.

Experiment [2] relates to Human primary neonatal keratinocytes. Description: Secretion of inflammatory mediators by primary keratinocytes (ELISA / Beadlyte). Type of experiment: cell-based. The note with it: 50 μM, 24 hours; for Fold change in the secretion of inflammatory mediators: IL-6 / Fold change in the secretion of inflammatory mediators: IL-8 / Fold change in the secretion of inflammatory mediators: PGE2 / Fold change in the secretion of inflammatory mediators: PGF2α: cell media; for Fold change in the secretion of inflammatory mediators: IL-6 / Fold change in the secretion of inflammatory mediators: IL-8: Beadlyte; for Fold change in the secretion of inflammatory mediators: PGE2 / Fold change in the secretion of inflammatory mediators: PGF2α: ELISA. The procedure:
Human primary neonatal keratinocytes were purchased from Cascade Biologics (Portland, Oreg.). Cells were cultured in Media 154 supplemented with human keratinocytes growth supplement (Cascade Biologics) and were maintained at <80% confluency. Cells were plated at 6×10^4 per well in 24 well plate and allowed to attach to the well overnight with 5% CO2. Cells were then treated with LIGR (50 μM), SLIGRL (50 μM), the control, scrambled peptide ISLLRG (SEQ.ID.NO.18) (50 μM) or left untreated. Each treatment was done in triplicates. 24 hours later, cell media were collected and examined for the expression and secretion of the inflammatory mediators PGE2, PGF2α, IL-8 and IL-6. PGE2 and PGF2α, using ELISA kits (Cayman Chemicals, Ann Arbor, Mich.) according to manufacturer's instructions. IL-8 and IL-6 levels were detected using Beadlyte Human Multi-cytokine Detection System (Upstate Cell Signaling Solutions, Lake Placid, N.Y.) according to manufacturer's instructions. The experiment was repeated 4 times with different lots of primary keratinocytes.
On the technique in general: In an ELISA, binding on a coated surface is turned into a signal by an enzyme label.

Experiment [3] concerns Cyclooxygenase-2 (COX-2). Description: COX-2 expression (RT-PCR) in skin of topically treated mice. Type of experiment: in vivo, SKH1 hairless mice. Conditions: for COX-2:GAPDH: 100 μM in 70:30 ethanol:propylene glycol, once daily for 2 weeks (M-F), skin RT-PCR. The procedure:
SKH1 hairless mice, were purchased from Charles River (Kingston, N.Y.), and were housed in appropriately sized cages in an environmentally controlled room with a 12-hour light—12-hour dark photoperiod and supplied with food and water ad libitum. Mice were either untreated, or treated with LIGR or SLIGRL (From California Research Peptide Research Inc. Napa, Calif.), at 100 μM, in 70:30 ethanol: propylene glycol vehicle, once daily for 2 weeks (M-F, no treatment on weekends). Following ten days of treatment, mice were sacrificed and skin samples were processed for RNA extraction and RT-PCR. The treated skins were analyzed for the expression of Cyclooxygenase-2 (COX-2), a known inflammatory mediator. Total RNA (25 ng) from each sample was subjected to one step RT-PCR reaction using OneStep RT-PCR Kit (QIAGEN®, Valencia, Calif.) according to manufacturer's instructions. The reverse transcription was carried out for 30 minutes at 50° C. and a hot start of 15 minutes at 95° C. was then included to activate HotStarTaq™ DNA polymerase in the reaction mix. PCR Primers were synthesized by Integrated DNA Technologies (Coralville, Iowa). Each RT-PCR reaction contained 30 pmol of each primer of COX-2 or 10 pmol of each primer of GAPDH. Each PCR cycle consisted of denaturing for 50 seconds at 94° C., annealing for 1 minute at 58° C., elongation for 1 minute at 72° C. The PCR products were resolved by electrophoresis in 1% agarose gel and stained with ethidium bromide. Kodak Gel logic 100 imaging system was used to take gel pictures and analyze product band density.
The results of this study are shown in Table 5, as expressed in the ratio of COX-2 expression to the expression of the housekeeping gene GAPDH. […] This in vivo study further supports that LIGR is not a classic PAR-2 activator, and is not inducing pro-inflammatory mediators under physiological conditions.

In experiment [4] the test system is Mucin 1 (MUC1). Description: MUC1 gene expression (RT-PCR) in human corneal epithelial equivalents. The experiment is classed as cell-based. The note with it: 200 μM; for Fold Change (MUC1:GAPDH): treatment refreshed every day, harvested end of 6th day, band density normalized against GAPDH. The procedure: Human corneal equivalents were purchased from SkinEthic Laboratories (Nice, France). Equivalents were allowed to equilibrate in SkinEthic growth medium overnight at 5% CO2, and were then treated with SLIGRL (SEQ.ID.NO.17) (200 μM), LIGR (SEQ.ID.NO.1) (200 μM) or Phosphate buffered saline (PBS) as a control. Treatment was refreshed everyday. At the end of the 6th day, equivalent samples were harvested. Total RNA was extracted from the equivalents using RNAqueous™ kit (Ambion, Austin, Tex.) according to manufacture's instructions. RNA samples were then treated with DNA-free kit (Ambion, Austin Tex.). 25 nanograms of total RNA from each sample were amplified using OneStep RT-PCR kit (Qiagen, Valencia, Calif.) according to the manufacture's instructions. PCR Primers were synthesized by Integrated DNA Technologies (Coralville, Iowa). Each RT-PCR reaction contained 30 pmol of each primer of MUC1 or 10 pmol of each primer of glyceraldehyde-3-phosphate dehydrogenase (GAPDH). Each PCR cycle consisted of denaturing for 50 seconds at 94° C., annealing for 1 minutes at 58° C., elongation for 1 minute at 72° C. The PCR products were resolved by electrophoresis in 1% agarose gel and stained with ethidium bromide. Kodak Gel logic 100 imaging system was used to take gel pictures and analyze product band density.
All sample densities were normalized against GAPDH.

For experiment [5], the target named is T1, PAR-2 (Rattus norvegicus, UniProt Q63645).
T1 construct: host or cells: rats in vivo (endogenous receptor)
T1 sequence (Q63645 26-397): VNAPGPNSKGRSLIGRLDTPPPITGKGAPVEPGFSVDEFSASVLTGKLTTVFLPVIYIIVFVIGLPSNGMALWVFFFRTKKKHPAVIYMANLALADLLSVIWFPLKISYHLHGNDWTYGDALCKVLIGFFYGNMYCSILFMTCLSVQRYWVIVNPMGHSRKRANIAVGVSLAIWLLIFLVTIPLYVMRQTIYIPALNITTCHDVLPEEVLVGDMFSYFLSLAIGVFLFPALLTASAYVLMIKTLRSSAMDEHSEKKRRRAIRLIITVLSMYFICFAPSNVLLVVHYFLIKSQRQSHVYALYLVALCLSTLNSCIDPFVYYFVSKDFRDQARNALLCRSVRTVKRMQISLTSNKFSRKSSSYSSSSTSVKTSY
Conditions: rats; Nishikawa H et al, J Pharmacol Exp Ther. 2005; cited from earlier work.

In experiment [1] (40 μM peptide), H2-Leu-Ile-Gly-Arg-NH2 (H-LIGR-NH2) gave a Fluorescence intensity of 628.27 fluorescence units. In experiment [1] (200 μM peptide), this substance returned a Fluorescence intensity of 424.315 fluorescence units. For the same substance, the Fluorescence intensity in experiment [1] (800 μM peptide) is recorded as 556.105 fluorescence units. Moreover, in experiment [1], the “Intracellular calcium mobilization (in words)” value is recorded as “does not induce calcium mobilization; also recorded: do not induce intracellular calcium mobilization”. In addition, in experiment [2], the “Induction of inflammatory mediators (in words)” value is “does not induce the secretion of inflammatory mediators; also recorded: did not induce these inflammatory mediators”, the “Fold change in the secretion of inflammatory mediators: IL-6” value (“Fold change in the secretion … IL-6” for short) is 1.2, the “Fold change in the secretion of inflammatory mediators: IL-8” value (from here on “Fold change in the secretion … IL-8”) is 1.0 and the “Fold change in the secretion of inflammatory mediators: PGE2” value (from here on “Fold change in the secretion … PGE2”) was 0.8. In addition, in experiment [2], the “Fold change in the secretion of inflammatory mediators: PGF2α” value (from here on “Fold change in the secretion … PGF2α”) amounted to 0.9. The “COX-2:GAPDH” value in experiment [3] turned out to be 0.275. In addition, in experiment [4], the “Fold Change (MUC1:GAPDH)” value is 2.1. In experiment [4] (corneal epithelial equivalents), the “Induction of expression of the MUC1 gene (in words)” value is recorded as “induces the expression of the mucin1 gene; also recorded: induced the expression of the MUC1 gene”.

“ISLLRG (ISSLRG; SYTHETIC PEPTIDE) [the control, scrambled peptide]”: the Fluorescence intensity in experiment [1] (40 μM peptide) is reported as 535.54 fluorescence units. In experiment [1] (400 μM peptide), the Fluorescence intensity was found to be 744.95 fluorescence units. Also, the “Intracellular calcium mobilization (in words)” value in experiment [1] is “do not induce intracellular calcium mobilization”. For the same substance, in experiment [2], the “Induction of inflammatory mediators (in words)” value is “did not induce these inflammatory mediators”, the “Fold change in the secretion … IL-6” value was determined as 1.1, the “Fold change in the secretion … IL-8” value amounted to 1.0 and the “Fold change in the secretion … PGE2” value worked out at 0.8. Besides, the “Fold change in the secretion … PGF2α” value in experiment [2] is given as 1.0.

Consider SLIGRL-NH2, for which the Fluorescence intensity in experiment [1] (4 μM peptide) is listed as 1386.9 fluorescence units. Further, the Fluorescence intensity in experiment [1] (8 μM peptide) is recorded as 1904.015 fluorescence units. Further, the Fluorescence intensity in experiment [1] (20 μM peptide) came to 2003.095 fluorescence units. This substance registered a Fluorescence intensity in experiment [1] (40 μM peptide) of 2842.92 fluorescence units. Besides, the “Intracellular calcium mobilization (in words)” value in experiment [1] is listed as “dose dependent increase”. Besides, in experiment [2], the “Increase in the expression and secretion of several inflammatory mediators” value was 1.5-3 times; the “Fold change in the secretion … IL-6” value was 2.7; the “Fold change in the secretion … IL-8” value worked out at 3.0; the “Fold change in the secretion … PGE2” value came out at 2.3. Further, the “Fold change in the secretion … PGF2α” value in experiment [2] came to 1.5. The “Tear secretion (in words)” value in experiment [5] is “induce Tear Secretion”. Also, the “COX-2:GAPDH” value in experiment [3] was found to be 1.168. Further, in experiment [3] (100 μM topical, mouse skin), the “COX-2 expression in vivo (in words)” value was “increased”. Also, in experiment [4], the “Fold Change (MUC1:GAPDH)” value is reported as 0.7.
